Results taken from patent US5882671A, “Anxiolytic agents” (Eli Lilly and Company, priority 1997, dated 1999).
Entries after “also recorded” stand apart in the source; their conditions may differ. Structures can show the parent of a compound that is named as a salt. Where two headings read alike, the source gives them in different places.

Columns and labels:
[1] = tested on: negatively coupled cAMP-linked metabotropic glutamate receptors; details: Schoepp and Johnson, Neuropharmacology Vol. 32; cited from earlier work
[2] = tested on: fear potentiated startle response; experiment: fear potentiated startle model of anxiety; assay type: in vivo, Male Long Evans rats; details: statement in words
Source text: In the fear potentiated startle model, animals are exposed to a neutral stimulus such as light (conditioned stimulus) with an aversive stimulus such as a shock (unconditioned stimulus). Following conditioning, when the animals are presented with a loud acoustic stimulus, larger startle responses are elicited when the startle stimulus is preceded by light. The difference in amplitude between the startle response when conditioned animals are exposed to the aversive stimulus paired with a neutral stimulus and the startle response when the conditioned animal is exposed only to the aversive stimulus is known as fear potentiated startle. The amplitude of the startle response when the animal is exposed only to the aversive stimulus is known as the baseline startle. Test compounds which are effective in this model decrease the fear potentiated startle response. It is emphasized that what is being determined experimentally is the difference between the startle response with paired stimuli and the baseline startle; test compounds which are anxiolytics may increase, decrease or leave unchanged the baseline startle response. (Davis, TiPS, January 1992 [Vol. 13], 35-41).
(§1) Male Long Evans rats (180-400 g) or male NIH Swiss mice (18-35 g) were obtained from Harlan Sprague-Dawley, Cumberland, Ind., U.S.A. and acclimated at least 3 days before testing. Animals were housed at 23°±2° C. (relative humidity 30% to 70%) and given Purina Certified Rodent Chow and water ad libitum. The photoperiod was 12 hours of light and 12 hours of dark, with dark onset at approximately 1800 hours.
(§2) Test compounds were dissolved in a vehicle of purified water and neutralized with 5N NaOH to a pH of 7-8 when applicable. […] Control animals received the respective vehicle.
SL-LAB (San Diego Instruments, San Diego, Calif.) chambers were used for conditioning sessions and for the production and recording of startle responses. A classical conditioning procedure was used to produce potentiation of startle responses. Briefly, on the first 2 days, rats were placed into dark startle chambers in which shock grids were installed. Following a 5-minute acclimation period, each rat received a 1 mA electric shock (500 ms) preceded by a 5 second presentation of light (15 watt) which remained on for the duration of the shock. Ten presentations of the light and shock were given in each conditioning session, […] A block of 10 consecutive presentations of acoustic startle stimuli (110 dB, non-light-paired) were presented at the beginning of the session in order to minimize the influences of the initial rapid phase of habituation to the stimulus. […]

[3] = tested on: negatively coupled cAMP-linked metabotropic glutamate receptors; experiment: selectivity of agonism at metabotropic glutamate receptors
Source text: As described previously herein, it is preferred to use an agonist which acts selectively at negatively coupled cAMP-linked metabotropic glutamate receptors (relative to other glutamate receptors) in the methods according to the invention. Such an agonist may be a single compound, for example one of the four compounds named hereinabove, or two or more compounds which, in combination function as an agonist which acts selectively at negatively coupled cAMP-linked metabotropic glutamate receptors.

[4] = tested on: natural aversion to height and open spaces; experiment: automated elevated plus maze model of anxiety; assay type: in vivo, male NIH Swiss mice
Protocol: The elevated plus maze model is based upon the natural aversion of rodents to height and open spaces.
as §1, §2
Construction of the elevated plus-maze was based on a design validated for mice by Lister (1987). The entire maze was made of clear Plexiglas. The maze was comprised of two open arms (30×5×0.25 cm) and two enclosed arms (30×5×15 cm). The floor of each maze arm was corrugated to provide texture. The arms extended from a central platform and angled at 90 degrees from each other. The maze was elevated to a height of 45 cm above the floor and illuminated by red light. Individual infrared photocells were mounted along each arm of the maze to monitor closed, open, or nosepoke activity. Mice were individually placed on the central platform of the maze and the number of closed arm, open arm, and nosepoke (poking head only into open arm from closed arm of maze) counts were recorded and used as a measure of arm entries and time spent on various sections of the maze over a five-minute test period.

[5] = tested on: fear potentiated startle response; details: reference anxiolytics, presentation of light, cited from earlier work
[6] = tested on: natural aversion to height and open spaces; details: reference anxiolytics, cited from earlier work
anxiety disorders = details: in vivo; cited from earlier work

N[C@@]1(C(=O)O)CC[C@@H](C(=O)O)C1 [1S,3R-1-aminocyclopentane-1,3-dicarboxylic acid]
action at PI-linked metabotropic glutamate receptors [1]: also acts at PI-linked metabotropic glutamate receptors | selectivity at negatively coupled cAMP-linked metabotropic glutamate receptors [1]: act non-selectively

N[C@@]1(C(=O)O)CO[C@H]2[C@H](C(=O)O)[C@H]21 [1R,4R,5S,6R-4-amino-2-oxabicyclo[3.1.0]hexane-4,6-dicarboxylic acid]
efficacy in fear potentiated startle model of anxiety [2]: effective | selectivity as agonist at negatively coupled cAMP-linked metabotropic glutamate receptors [3]: act selectively as agonists

NC1(C(=O)O)CCC2C(C(=O)O)C21 (single isomer, unassigned; (+)) [(+)-2-Aminobicyclo[3.1.0]hexane-2,6-dicarboxylic Acid]
efficacy in fear potentiated startle model of anxiety [2]: effective | Nosepoke counts ([4]; oral, 3 mg/kg, mice, five-minute test period): significant increase | open arm activity ([4]; oral, 1, 3 and 10 mg/kg, mice, five-minute test period): significant increases | Closed arm activity counts ([4]; oral, any dose, mice, five-minute test period): not significantly altered | efficacy in elevated plus maze model of anxiety ([4]; statement in words): effective | selectivity as agonist at negatively coupled cAMP-linked metabotropic glutamate receptors [3]: acts selectively as an agonist

N[C@]1(C(=O)O)CO[C@@H]2[C@@H](C(=O)O)[C@@H]21 (relative stereo) [1SR,4SR,5RS,6SR-4-amino-2-oxabicyclo[3.1.0]hexane-4,6-dicarboxylic acid]
efficacy in fear potentiated startle model of anxiety [2]: effective | selectivity as agonist at negatively coupled cAMP-linked metabotropic glutamate receptors [3]: act selectively as agonists

CN1C(=O)CN=C(c2ccccc2)c2cc(Cl)ccc21 [Diazepam]
reduction of fear (increased startle response) in the fear potentiated startle model [5]: effective at reducing the fear | reduction of fear of open spaces in the elevated plus maze model [6]: reducing the fear of open spaces

N[C@@]1(C(=O)O)CS[C@@H]2[C@H](C(=O)O)[C@@H]21 (relative stereo) [1SR,4SR,5RS,6SR-4-amino-2-thiabicyclo[3.1.0]hexane-4,6-dicarboxylic acid]
efficacy in fear potentiated startle model of anxiety [2]: effective | selectivity as agonist at negatively coupled cAMP-linked metabotropic glutamate receptors [3]: act selectively as agonists

O=C1CC2(CCCC2)CC(=O)N1CCCCN1CCN(c2ncccn2)CC1 [Buspirone hydrochloride, buspirone hydrochloride]
reduction of fear (increased startle response) in the fear potentiated startle model ([5]; hydrochloride): effective at reducing the fear | dependence-inducing side effects (anxiety disorders): lacks the dependence-inducing side effects | reduction of fear of open spaces in the elevated plus maze model ([6]; hydrochloride): effective; also recorded: reducing the fear of open spaces
